Measurements taken from patent US20260027116A1, “Methods of Treating Chronic Graft-Versus-Host Disease Following Allogeneic Hematopoietic Stem Cell Transplantation” (Kadmon Corporation, LLC, priority 2022, published 2026).

Columns and labels:
UGT1A9 = target: T1, UGT1A9 (Homo sapiens, UniProt O60656); test: metabolism in vitro; assay type: in vitro ADME
T1 sequence (O60656 26-530): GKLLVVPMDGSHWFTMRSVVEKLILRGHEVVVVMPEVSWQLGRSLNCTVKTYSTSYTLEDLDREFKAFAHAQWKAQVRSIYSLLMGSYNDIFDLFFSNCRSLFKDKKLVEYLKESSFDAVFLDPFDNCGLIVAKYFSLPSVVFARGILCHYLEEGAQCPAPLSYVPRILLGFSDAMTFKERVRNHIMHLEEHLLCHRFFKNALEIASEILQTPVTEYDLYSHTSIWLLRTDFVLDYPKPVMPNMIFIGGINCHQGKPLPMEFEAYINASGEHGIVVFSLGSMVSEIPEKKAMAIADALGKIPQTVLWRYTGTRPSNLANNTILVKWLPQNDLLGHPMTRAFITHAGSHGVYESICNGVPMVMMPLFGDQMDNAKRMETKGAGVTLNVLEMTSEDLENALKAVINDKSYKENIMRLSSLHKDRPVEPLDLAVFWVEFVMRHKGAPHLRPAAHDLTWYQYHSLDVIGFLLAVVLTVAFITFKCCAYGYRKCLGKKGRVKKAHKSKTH

lung function = test: Example 1: percent predicted TLC change from baseline; assay type: in vivo, human; details: mean (SD)
Experimental: Change From Baseline in Percent Predicted Total Lung Capacity (TLC) at Each Specified Time Points. TLC is the volume of air in the lungs upon the maximum effort of inspiration. Baseline value was defined as valid and last non-missing value obtained within 28 days prior to participant receiving first study medication. EOT visit was performed within 3 days after the participant's last dose of study drug. […] Analysis was performed on mITT population. Here, ‘number analyzed’=participants with available data for each specified category. Here, ‘0’ in the number analyzed field signifies that none of the participants were available for the analysis at the specified time points.

CC(C)NC(=O)COc1cccc(-c2nc(Nc3ccc4[nH]ncc4c3)c3ccccc3n2)c1 [Belumosudil, 2-{3-[4-(1H-indazol-5-ylamino)-2-quinazolinyl]phenoxy}-N-(propan-2-yl) acetamide]
metabolism by UGT1A9 (UGT1A9): to a lesser extent
Change From Baseline in Percent Predicted Total Lung Capacity (TLC) (lung function; Cohort 1: 200 mg QD, Cycle 3, Day 1): 1.6 (11.9) Percent Predicted TLC
Change From Baseline in Percent Predicted Total Lung Capacity (TLC) (lung function; Cohort 1: 200 mg QD, Cycle 5, Day 1): −2.6 (16.8) Percent Predicted TLC
Change From Baseline in Percent Predicted Total Lung Capacity (TLC) (lung function; Cohort 1: 200 mg QD, Cycle 7, Day 1): −3.7 (6.6) Percent Predicted TLC
Change From Baseline in Percent Predicted Total Lung Capacity (TLC) (lung function; Cohort 1: 200 mg QD, Cycle 9, Day 1): −2.9 (6.1) Percent Predicted TLC
Change From Baseline in Percent Predicted Total Lung Capacity (TLC) (lung function; Cohort 1: 200 mg QD, Cycle 11, Day 1): 0.7 (4.3) Percent Predicted TLC
Change From Baseline in Percent Predicted Total Lung Capacity (TLC) (lung function; Cohort 1: 200 mg QD, Cycle 12, Day 1): −9.0 (—) Percent Predicted TLC
Change From Baseline in Percent Predicted Total Lung Capacity (TLC) (lung function; Cohort 1: 200 mg QD, Cycle 13, Day 1): −0.3 (7.1) Percent Predicted TLC
Change From Baseline in Percent Predicted Total Lung Capacity (TLC) (lung function; Cohort 1: 200 mg QD, Cycle 14, Day 1): 23.0 (—) Percent Predicted TLC
Change From Baseline in Percent Predicted Total Lung Capacity (TLC) (lung function; Cohort 1: 200 mg QD, Cycle 15, Day 1): −2.8 (10.8) Percent Predicted TLC
Change From Baseline in Percent Predicted Total Lung Capacity (TLC) (lung function; Cohort 1: 200 mg QD, Cycle 16, Day 1): −3.0 (—) Percent Predicted TLC
Change From Baseline in Percent Predicted Total Lung Capacity (TLC) (lung function; Cohort 1: 200 mg QD, Cycle 17, Day 1): −3.0 (6.2) Percent Predicted TLC
Change From Baseline in Percent Predicted Total Lung Capacity (TLC) (lung function; Cohort 1: 200 mg QD, Cycle 19, Day 1): −4.6 (6.1) Percent Predicted TLC
Change From Baseline in Percent Predicted Total Lung Capacity (TLC) (lung function; Cohort 1: 200 mg QD, Cycle 21, Day 1): 0.3 (9.3) Percent Predicted TLC
Change From Baseline in Percent Predicted Total Lung Capacity (TLC) (lung function; Cohort 1: 200 mg QD, Cycle 23, Day 1): 0.0 (8.7) Percent Predicted TLC
Change From Baseline in Percent Predicted Total Lung Capacity (TLC) (lung function; Cohort 1: 200 mg QD, Cycle 24, Day 1): 0.0 (—) Percent Predicted TLC
Change From Baseline in Percent Predicted Total Lung Capacity (TLC) (lung function; Cohort 1: 200 mg QD, Cycle 25, Day 1): −3.0 (7.1) Percent Predicted TLC
Change From Baseline in Percent Predicted Total Lung Capacity (TLC) (lung function; Cohort 1: 200 mg QD, Cycle 26, Day 1): 0.0 (—) Percent Predicted TLC
Change From Baseline in Percent Predicted Total Lung Capacity (TLC) (lung function; Cohort 1: 200 mg QD, Cycle 27, Day 1): 5.5 (16.3) Percent Predicted TLC
Change From Baseline in Percent Predicted Total Lung Capacity (TLC) (lung function; Cohort 1: 200 mg QD, Cycle 29, Day 1): −1.0 (17.0) Percent Predicted TLC
Change From Baseline in Percent Predicted Total Lung Capacity (TLC) (lung function; Cohort 1: 200 mg QD, Cycle 30, Day 1): 7.0 (—) Percent Predicted TLC
Change From Baseline in Percent Predicted Total Lung Capacity (TLC) (lung function; Cohort 1: 200 mg QD, Cycle 31, Day 1): 7.5 (17.7) Percent Predicted TLC
Change From Baseline in Percent Predicted Total Lung Capacity (TLC) (lung function; Cohort 1: 200 mg QD, Cycle 32, Day 1): 1.0 (—) Percent Predicted TLC
Change From Baseline in Percent Predicted Total Lung Capacity (TLC) (lung function; Cohort 1: 200 mg QD, Cycle 33, Day 1): 14.0 (11.3) Percent Predicted TLC
Change From Baseline in Percent Predicted Total Lung Capacity (TLC) (lung function; Cohort 1: 200 mg QD, Cycle 34, Day 1): 2.0 (—) Percent Predicted TLC
Change From Baseline in Percent Predicted Total Lung Capacity (TLC) (lung function; Cohort 1: 200 mg QD, Cycle 35, Day 1): 10.5 (7.8) Percent Predicted TLC
Change From Baseline in Percent Predicted Total Lung Capacity (TLC) (lung function; Cohort 1: 200 mg QD, Cycle 36, Day 1): 6.0 (—) Percent Predicted TLC
Change From Baseline in Percent Predicted Total Lung Capacity (TLC) (lung function; Cohort 1: 200 mg QD, Cycle 48, Day 1): −13.0 (—) Percent Predicted TLC
Change From Baseline in Percent Predicted Total Lung Capacity (TLC) (lung function; Cohort 1: 200 mg QD, Cycle 49, Day 1): 5.0 (—) Percent Predicted TLC
Change From Baseline in Percent Predicted Total Lung Capacity (TLC) (lung function; Cohort 1: 200 mg QD, Cycle 51, Day 1): 15.0 (—) Percent Predicted TLC
Change From Baseline in Percent Predicted Total Lung Capacity (TLC) (lung function; Cohort 1: 200 mg QD, Cycle 52, Day 1): 1.0 (—) Percent Predicted TLC
Change From Baseline in Percent Predicted Total Lung Capacity (TLC) (lung function; Cohort 1: 200 mg QD, Cycle 53, Day 1): 15.0 (—) Percent Predicted TLC
Change From Baseline in Percent Predicted Total Lung Capacity (TLC) (lung function; Cohort 1: 200 mg QD, Cycle 54, Day 1): 4.0 (—) Percent Predicted TLC
Change From Baseline in Percent Predicted Total Lung Capacity (TLC) (lung function; Cohort 1: 200 mg QD, Cycle 55, Day 1): 29.0 (—) Percent Predicted TLC
Change From Baseline in Percent Predicted Total Lung Capacity (TLC) (lung function; Cohort 1: 200 mg QD, Cycle 56, Day 1): 9.0 (—) Percent Predicted TLC
Change From Baseline in Percent Predicted Total Lung Capacity (TLC) (lung function; Cohort 1: 200 mg QD, Cycle 57, Day 1): 18.0 (—) Percent Predicted TLC
Change From Baseline in Percent Predicted Total Lung Capacity (TLC) (lung function; Cohort 1: 200 mg QD, Cycle 58, Day 1): 5.0 (—) Percent Predicted TLC
Change From Baseline in Percent Predicted Total Lung Capacity (TLC) (lung function; Cohort 1: 200 mg QD, Cycle 60, Day 1): −3.0 (—) Percent Predicted TLC
Change From Baseline in Percent Predicted Total Lung Capacity (TLC) (lung function; Cohort 1: 200 mg QD, Cycle 61, Day 1): 5.0 (—) Percent Predicted TLC
Change From Baseline in Percent Predicted Total Lung Capacity (TLC) (lung function; Cohort 1: 200 mg QD, Cycle 62, Day 1): −1.0 (—) Percent Predicted TLC
Change From Baseline in Percent Predicted Total Lung Capacity (TLC) (lung function; Cohort 1: 200 mg QD, Cycle 63, Day 1): 12.0 (—) Percent Predicted TLC
Change From Baseline in Percent Predicted Total Lung Capacity (TLC) (lung function; Cohort 1: 200 mg QD, Cycle 67, Day 1): 12.0 (—) Percent Predicted TLC
Change From Baseline in Percent Predicted Total Lung Capacity (TLC) (lung function; Cohort 1: 200 mg QD, EOT): 5.2 (27.5) Percent Predicted TLC
Change From Baseline in Percent Predicted Total Lung Capacity (TLC) (lung function; Cohort 2: 200 mg BID, Cycle 3, Day 1): 1.9 (8.5) Percent Predicted TLC
Change From Baseline in Percent Predicted Total Lung Capacity (TLC) (lung function; Cohort 2: 200 mg BID, Cycle 5, Day 1): −7.2 (10.5) Percent Predicted TLC
Change From Baseline in Percent Predicted Total Lung Capacity (TLC) (lung function; Cohort 2: 200 mg BID, Cycle 7, Day 1): −4.4 (6.3) Percent Predicted TLC
Change From Baseline in Percent Predicted Total Lung Capacity (TLC) (lung function; Cohort 2: 200 mg BID, Cycle 8, Day 1): −5.0 (—) Percent Predicted TLC
Change From Baseline in Percent Predicted Total Lung Capacity (TLC) (lung function; Cohort 2: 200 mg BID, Cycle 9, Day 1): −6.0 (8.5) Percent Predicted TLC
Change From Baseline in Percent Predicted Total Lung Capacity (TLC) (lung function; Cohort 2: 200 mg BID, Cycle 10, Day 1): −18.5 (6.4) Percent Predicted TLC
Change From Baseline in Percent Predicted Total Lung Capacity (TLC) (lung function; Cohort 2: 200 mg BID, Cycle 11, Day 1): −5.2 (11.2) Percent Predicted TLC
